Tests used:
Type in all cases: biochemical
Details in all cases: recombinant human kinase, 1 μM ATP
SRC kinase = target: T1, SRC kinase (Homo sapiens, UniProt P12931); assay: 33PanQinase protein kinase activity assay, SRC
T1 construct: made in house; host or cells: Sf9 insect cells (baculovirus)
Protocol: (§1) The effect of the farazanopyrazine derivatives was tested on recombinant, human protein kinases. All protein kinases were expressed in Sf9 insect cells as human recombinant GST-fusion proteins or as His-tagged proteins by means of the baculovirus expression system. Protein kinases were purified by affinity chromatography using either GSH-agarose or Ni-NTH-agarose. The purity and identity of each was checked by SDS-PAGE/silver staining and by western blot analysis with specific antibodies.
(§2) A proprietary protein kinase assay (^33 PanQinase® Activity Assay) was used for measuring the kinase activity. All kinase assays were performed in 96-well FlashPlates™ in a 50 μl reaction volume. The assay for all enzymes contained 60 mM HEPES-NaOH, pH 7.5, 3 mM MgCl2, 3 mM MnCl2, 3 μM Na-orthovanadate, 1.2 mM DTT, 50 μg/ml PEG20000 and 1 μM [γ-^33P]-ATP (approx. 5×10^5 cpm per well).
(§3) The reaction cocktails were incubated at 30° C. for 80 minutes. The reaction was stopped with 50 μl of 2% (v/v) H3PO4, plates were aspirated and washed two times with 200 μl of 0.9% (w/v) NaCl. Incorporation of 33Pi was determined with a microplate scintillation counter. All assays were performed with a BeckmanCoulter/Sagian robotic system.

Aurora B kinase = target: T2, Aurora B kinase (Homo sapiens, UniProt Q96GD4); assay: 33PanQinase protein kinase activity assay, Aurora B
T2 construct: made in house; host or cells: Sf9 insect cells (baculovirus)
Protocol: as §1, §2, §3

VEGF-R2 = target: T3, VEGF-R2 (Homo sapiens, UniProt P35968); assay: 33PanQinase protein kinase activity assay, VEGF-R2
T3 construct: made in house; host or cells: Sf9 insect cells (baculovirus)
Protocol: as §1, §2, §3

IGF-1 R = target: T4, IGF-1 R (Homo sapiens, UniProt P08069); assay: 33PanQinase protein kinase activity assay, IGF-1 R
T4 construct: made in house; host or cells: Sf9 insect cells (baculovirus)
Protocol: as §1, §2, §3

T2 sequence (Q96GD4 whole entry): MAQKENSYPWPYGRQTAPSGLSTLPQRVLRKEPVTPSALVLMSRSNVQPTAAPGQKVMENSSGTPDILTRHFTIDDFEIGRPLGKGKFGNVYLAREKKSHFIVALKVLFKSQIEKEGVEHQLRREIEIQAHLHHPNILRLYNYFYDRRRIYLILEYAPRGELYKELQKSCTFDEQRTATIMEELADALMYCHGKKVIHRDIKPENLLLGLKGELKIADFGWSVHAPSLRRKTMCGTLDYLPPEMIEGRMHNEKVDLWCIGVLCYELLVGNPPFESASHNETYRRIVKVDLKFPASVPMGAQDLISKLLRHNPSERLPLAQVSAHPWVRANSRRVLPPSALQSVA
T3 sequence (P35968 20-1356): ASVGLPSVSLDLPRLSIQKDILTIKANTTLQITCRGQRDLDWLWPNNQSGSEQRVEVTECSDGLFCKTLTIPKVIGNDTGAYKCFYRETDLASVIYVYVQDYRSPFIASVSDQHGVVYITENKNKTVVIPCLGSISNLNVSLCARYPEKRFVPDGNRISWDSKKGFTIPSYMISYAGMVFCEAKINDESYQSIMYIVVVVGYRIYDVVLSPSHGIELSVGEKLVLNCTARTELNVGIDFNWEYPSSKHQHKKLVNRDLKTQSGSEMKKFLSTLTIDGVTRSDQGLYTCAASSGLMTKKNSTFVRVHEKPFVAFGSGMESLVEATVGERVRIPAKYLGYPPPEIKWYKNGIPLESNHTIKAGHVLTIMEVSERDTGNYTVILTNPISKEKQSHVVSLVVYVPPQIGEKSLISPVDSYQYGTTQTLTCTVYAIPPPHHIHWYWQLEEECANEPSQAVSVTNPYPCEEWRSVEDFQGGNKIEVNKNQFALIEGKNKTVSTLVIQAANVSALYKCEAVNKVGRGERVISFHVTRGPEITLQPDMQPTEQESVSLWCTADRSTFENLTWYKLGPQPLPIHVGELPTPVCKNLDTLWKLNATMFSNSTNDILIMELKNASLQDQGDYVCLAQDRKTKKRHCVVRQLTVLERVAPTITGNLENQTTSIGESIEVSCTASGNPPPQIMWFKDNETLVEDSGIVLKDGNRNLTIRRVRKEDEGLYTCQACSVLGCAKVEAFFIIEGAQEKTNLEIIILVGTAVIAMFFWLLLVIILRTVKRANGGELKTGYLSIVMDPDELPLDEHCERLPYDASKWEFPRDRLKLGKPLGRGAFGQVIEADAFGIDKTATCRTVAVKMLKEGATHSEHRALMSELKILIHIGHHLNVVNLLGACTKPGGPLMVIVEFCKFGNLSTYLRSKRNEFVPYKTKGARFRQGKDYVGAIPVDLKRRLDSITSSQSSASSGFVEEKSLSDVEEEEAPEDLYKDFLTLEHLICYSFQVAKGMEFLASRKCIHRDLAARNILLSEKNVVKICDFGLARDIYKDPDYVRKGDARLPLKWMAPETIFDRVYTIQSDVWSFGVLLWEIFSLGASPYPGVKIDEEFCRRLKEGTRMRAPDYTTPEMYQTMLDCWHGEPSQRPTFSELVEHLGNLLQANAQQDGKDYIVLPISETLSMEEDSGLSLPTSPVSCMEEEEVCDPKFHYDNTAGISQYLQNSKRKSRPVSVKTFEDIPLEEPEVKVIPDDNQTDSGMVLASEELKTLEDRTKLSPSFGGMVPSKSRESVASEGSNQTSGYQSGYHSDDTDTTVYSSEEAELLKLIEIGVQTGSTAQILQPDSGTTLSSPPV
T1 sequence (P12931 whole entry): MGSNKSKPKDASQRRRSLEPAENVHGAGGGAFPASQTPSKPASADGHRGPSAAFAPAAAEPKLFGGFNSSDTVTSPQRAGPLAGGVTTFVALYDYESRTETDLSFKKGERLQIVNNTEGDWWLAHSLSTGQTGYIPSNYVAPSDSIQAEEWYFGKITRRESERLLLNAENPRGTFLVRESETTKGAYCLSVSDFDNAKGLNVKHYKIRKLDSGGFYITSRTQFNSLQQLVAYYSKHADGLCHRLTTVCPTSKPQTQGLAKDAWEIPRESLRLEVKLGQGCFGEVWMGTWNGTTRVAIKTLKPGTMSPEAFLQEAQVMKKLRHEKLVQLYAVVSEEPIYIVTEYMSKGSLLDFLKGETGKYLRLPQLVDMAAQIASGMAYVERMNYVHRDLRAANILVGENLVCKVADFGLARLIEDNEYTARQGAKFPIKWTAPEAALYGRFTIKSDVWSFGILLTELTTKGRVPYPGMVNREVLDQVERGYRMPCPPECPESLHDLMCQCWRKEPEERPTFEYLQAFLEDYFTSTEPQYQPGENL
T4 sequence (P08069 31-1367): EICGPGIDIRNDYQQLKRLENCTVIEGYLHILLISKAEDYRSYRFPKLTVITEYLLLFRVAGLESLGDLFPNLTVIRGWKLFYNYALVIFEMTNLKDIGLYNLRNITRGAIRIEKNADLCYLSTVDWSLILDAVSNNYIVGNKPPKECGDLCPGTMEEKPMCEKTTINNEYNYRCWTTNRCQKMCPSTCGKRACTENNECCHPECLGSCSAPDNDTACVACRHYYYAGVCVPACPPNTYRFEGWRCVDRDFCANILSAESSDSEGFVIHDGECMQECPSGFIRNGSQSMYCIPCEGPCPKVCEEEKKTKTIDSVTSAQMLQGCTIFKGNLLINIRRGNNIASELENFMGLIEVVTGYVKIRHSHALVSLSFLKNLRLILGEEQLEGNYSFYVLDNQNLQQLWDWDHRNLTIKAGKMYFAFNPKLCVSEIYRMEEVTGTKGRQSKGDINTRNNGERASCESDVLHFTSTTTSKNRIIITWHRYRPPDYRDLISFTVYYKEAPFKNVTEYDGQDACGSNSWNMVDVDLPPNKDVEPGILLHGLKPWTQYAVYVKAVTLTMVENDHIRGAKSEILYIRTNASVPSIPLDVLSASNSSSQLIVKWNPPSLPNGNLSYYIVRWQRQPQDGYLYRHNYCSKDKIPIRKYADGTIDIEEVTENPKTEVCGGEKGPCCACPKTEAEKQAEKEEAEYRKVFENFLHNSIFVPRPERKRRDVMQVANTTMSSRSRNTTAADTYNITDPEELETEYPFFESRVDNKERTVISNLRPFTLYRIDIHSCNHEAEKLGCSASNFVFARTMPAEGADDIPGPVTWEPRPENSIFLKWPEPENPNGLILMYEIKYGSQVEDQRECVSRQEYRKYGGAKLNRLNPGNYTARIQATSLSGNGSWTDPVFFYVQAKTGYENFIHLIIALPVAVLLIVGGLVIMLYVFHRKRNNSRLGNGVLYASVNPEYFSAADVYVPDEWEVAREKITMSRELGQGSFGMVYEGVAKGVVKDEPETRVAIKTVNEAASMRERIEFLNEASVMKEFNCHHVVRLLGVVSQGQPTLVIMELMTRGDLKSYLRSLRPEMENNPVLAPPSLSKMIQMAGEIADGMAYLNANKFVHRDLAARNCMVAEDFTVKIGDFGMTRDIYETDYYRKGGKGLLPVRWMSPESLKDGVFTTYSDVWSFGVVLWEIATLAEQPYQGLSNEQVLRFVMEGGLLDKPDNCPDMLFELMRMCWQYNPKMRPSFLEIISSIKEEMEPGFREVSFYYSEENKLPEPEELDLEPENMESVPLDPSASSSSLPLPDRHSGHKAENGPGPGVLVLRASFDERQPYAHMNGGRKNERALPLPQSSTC

Row | SMILES | IC50 (SRC kinase) [µM] | IC50 (Aurora B kinase) [µM] | IC50 (VEGF-R2) [µM] | IC50 (IGF-1 R) [µM]
1 | COc1cc(C=NNc2nc3nonc3nc2Nc2ccccc2F)cc([N+](=O)[O-])c1O [Example 7] | < 1 | < 10 | < 2 | –
2 | O=C(O)c1cc(-c2ccc(C=NNc3nc4nonc4nc3Nc3ccccc3F)o2)ccc1O [Example 23] | < 1 | < 10 | < 2 | < 1
3 | COc1ccccc1Nc1nc2nonc2nc1NN=Cc1cc(I)cc(I)c1O [Example 47] | – | < 10 | – | –
4 | O=C(O)c1cc(-c2ccc(C=NNc3nc4nonc4nc3Nc3ccc(Br)cc3)o2)ccc1Cl [Example 52] | < 1 | < 10 | < 2 | < 1
5 | Oc1ccc(C=NNc2nc3nonc3nc2Nc2ccccc2)c(O)c1 [Example 81] | – | < 10 | – | –
6 | O=C(O)c1cccc(-c2ccc(C=NNc3nc4nonc4nc3Nc3ccccc3)o2)c1 [Example 89] | – | < 10 | – | –
7 | O=C1Nc2ccccc2C1=NNc1nc2nonc2nc1Nc1ccccc1 [Example 95, 3-[(6-Phenylamino-[1,2,5]oxadiazolo [3,4-b]pyrazin-5-yl)-hydrazono]-1,3-dihydro-indol-2-one] | – | < 10 | – | < 1
8 | O=C(O)c1cccc(-c2ccc(C=NNc3nc4nonc4nc3NCc3ccccc3)o2)c1 [Example 111] | – | < 10 | – | –
9 | O=C(O)c1ccc(-c2ccc(C=NNc3nc4nonc4nc3NCc3ccccc3)o2)cc1 [Example 117] | – | < 10 | – | –
10 | Oc1ccc(C=NNc2nc3nonc3nc2Nc2ccc(F)cc2)c(O)c1 [Example 126] | – | < 10 | – | –
11 | Oc1ccc(C=NNc2nc3nonc3nc2Nc2cccc(Cl)c2)c(O)c1 [Example 147] | – | < 10 | – | –
12 | O=C(O)c1cccc(-c2ccc(C=NNc3nc4nonc4nc3Nc3cccc(Cl)c3)o2)c1 [Example 154] | < 1 | < 10 | < 2 | < 1
13 | Oc1ccc(C=NNc2nc3nonc3nc2Nc2ccc(F)c(Cl)c2)c(O)c1 [Example 165] | – | < 10 | < 2 | –
14 | O=C(O)c1cccc(-c2ccc(C=NNc3nc4nonc4nc3Nc3ccc(F)c(Cl)c3)o2)c1 [Example 173] | < 1 | < 10 | – | < 1
15 | O=C(O)c1cc(-c2ccc(C=NNc3nc4nonc4nc3Nc3ccc(F)c(Cl)c3)o2)ccc1Cl [Example 176] | < 1 | < 10 | < 2 | < 1
16 | O=S(=O)(O)c1ccc(C=NNc2nc3nonc3nc2Nc2ccc(F)c(Cl)c2)o1 [Example 181] | – | < 10 | – | –
17 | Oc1ccc(C=NNc2nc3nonc3nc2Nc2ccc(Cl)c(Cl)c2)c(O)c1 [Example 189] | – | < 10 | – | –
18 | O=C(O)c1cccc(-c2ccc(C=NNc3nc4nonc4nc3Nc3ccc(Cl)c(Cl)c3)o2)c1 [Example 194] | < 1 | < 10 | < 2 | < 1
19 | O=C(O)c1cc(-c2ccc(C=NNc3nc4nonc4nc3Nc3ccc(Cl)c(Cl)c3)o2)ccc1Cl [Example 196] | < 1 | < 10 | < 2 | < 1
20 | O=C(O)c1ccc(-c2ccc(C=NNc3nc4nonc4nc3Nc3ccc(Cl)c(Cl)c3)o2)cc1 [Example 199] | < 1 | < 10 | < 2 | < 1
21 | O=C1Nc2ccccc2C1=NNc1nc2nonc2nc1Nc1ccc(Cl)c(Cl)c1 [Example 201, 3-{[6-(3,4-Dichloro-phenylamino)-[1,2,5]oxadiazolo [3,4-b]pyrazin-5-yl]-hydrazono}-1,3-dihydro-indol-2-one] | < 1 | – | < 2 | < 1

— patent US20050143382A1 (4SC AG, priority 2003, published 2005)
